Where two headings read alike, the source gives them in different places.
Columns and labels:
CYP2B6 = molecular target: T1, CYP2B6 (Homo sapiens, UniProt P20813); test: CYP450 isoform enzymatic inhibition, 2B6; type: in vitro ADME; settings: pH 7.4, read-out: CYP inhibiton/% 2B6
T1 sequence (P20813 1-491): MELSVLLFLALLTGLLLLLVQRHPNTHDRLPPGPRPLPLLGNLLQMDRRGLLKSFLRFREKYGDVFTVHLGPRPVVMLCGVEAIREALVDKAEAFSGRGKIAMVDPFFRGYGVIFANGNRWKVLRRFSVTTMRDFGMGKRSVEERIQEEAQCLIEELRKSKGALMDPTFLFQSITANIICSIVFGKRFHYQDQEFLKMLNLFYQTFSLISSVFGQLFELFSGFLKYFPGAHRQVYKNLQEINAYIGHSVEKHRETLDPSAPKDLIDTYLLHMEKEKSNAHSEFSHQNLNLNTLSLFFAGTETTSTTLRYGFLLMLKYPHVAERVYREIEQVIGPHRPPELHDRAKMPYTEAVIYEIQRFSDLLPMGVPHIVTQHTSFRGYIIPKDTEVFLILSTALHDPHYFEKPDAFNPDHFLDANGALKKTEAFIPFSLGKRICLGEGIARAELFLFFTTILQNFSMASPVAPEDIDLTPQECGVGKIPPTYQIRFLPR
Protocol: Enzymatic experiments were performed to quantify the inhibition of CYP450 enzyme activity of each isoform of CYP450 by small molecule inhibitors through fluorescence generated by the oxidation of the The substrate by cytochrome P450. […] The Solution B composition used for the experiment was: 40 U/mL G6PDH (Sigma-aldrich, Cat #G6378). The The substrate mix was 0.05×Solution A, 0.01×Solution B, 50 mM Potassium Phosphate, 0.01 mM BOMCC/0.01 mM EOMCC/0.001 mM DBOMF.

[1] = Liver microsomes in vitro stability (mouse); type: in vitro ADME; settings: read-out: T1/2/min
Protocol: (§1) 1. Preparation of Working Solution:
(§2) Microsomes were taken out from the −80° C. refrigerator, rapidly melted in a 37° C. water bath and placed on ice until ready to use. The test article was diluted with DMSO to prepare a 10 mM stock solution, and then diluted with acetonitrile to a 0.5 mM secondary stock solution. […] NADPH was diluted with Buffer C to a working solution of 6 mM for the starter solution. An acetonitrile solution containing an internal standard was prepared as the precipitant, and Verapamil-HCl was chosen as the internal standard at a concentration of 4 ng/ml.
(§3) 2. Experimental Procedure:
(§4) A round-bottom well plate was taken, noted as the reaction plate, and the prepared working solution for each compound was dispensed into the well plate according to the number of replicates and time points (0 h samples were also added to the reaction plate), 30 μL/well; the plate was incubated at 37° C. for 10 min. A separate plate with pointed bottom wells, noted as a precipitation plate, was added with 135 μL precipitant per well; 0 h samples were transferred to the plate after 10 min incubation and 15 μL of starter solution was added; the plate was placed on ice before centrifugation.
(§5) The diluted starter solution was added in sufficient quantity to the dispensing plate to facilitate the multichannel pipette aspiration operation.
(§6) The reaction was carried out on a warm incubation shaker and 15 μL of starter solution/sample is added to the plate using a multichannel pipette. The reaction was mixed with a slight shake to initiate the reaction, which was accurately timed and recorded using a timer. In general, samples with shorter reaction times are initiated late and vice versa early, allowing sufficient time for multiple plate manipulation to terminate the reaction. For example, as for the four experiments of 5, 15, 30, and 60 min, the 60 min experiment was started first, and the 5 min experiment was started later, so as to leave sufficient time for the 5 min group.
(§7) After the reaction time had elapsed, all the solution in the plate was aspirated using the multichannel pipette and added to the precipitation plate to terminate the reaction at that point in time. After all reactions had been terminated, the plates were shaken for ten minutes on a plate shaker at 600 rpm to precipitate the protein. The plate was centrifuged at 4° C. for 15 minutes at maximum rpm. 80 μL of supernatant was taken, 320 μL of pure water was added and mixed for LC-MS analysis.

[2] = Liver microsomes in vitro stability (human); type: in vitro ADME; settings: read-out: T1/2/min (H)
Protocol: as §1, §2, §3, §4, §5, §6, §7

H1299 cells = test: Anti-proliferative effect on H1299 cells by Cell Titer-Glo; type: cell-based; settings: 3 days
Protocol: (§8) Test Example 2: Evaluation of Cell Proliferation Inhibitory Activity
1. Evaluation of the Anti-Proliferative Effect of Compounds on H1299 Cells by the Cell Titer-Glo Method
(§9) Compound solutions of different concentration gradients were prepared. […] The cell growth group without compound was used as a positive control (maximum signal control) and the medium was used as a negative control (minimum signal control), while ensuring that the final level of DMSO in each reaction well was 0.2%. After removing the medium from the 384-well plate, 25 ul of the configured compound at different concentrations was transferred into the well plate and the compound and cells were incubated in the cell incubator at 37° C. with 5% CO2 for 3 days.
(§10) The 384-well plates were removed from the cell incubator and allowed to equilibrate for 1h to room temperature. 25 ul of Cell Titer-Glo assay was added to each well, lysed on a shaker for 2 min and then read out (Luminescence) using a BMG PHERAStar after 10 min incubation. Calculate the inhibition rate from the luminescence signal: first calculate the average of the positive control (maximum signal control) and the negative control (minimum signal control).
(§11) was used to calculate the rate of inhibition of the cells by different concentrations of the compounds. The IC50 of the compound on cell activity inhibition was calculated by fitting a log(inhibitor) vs. response-Variable slope model to GraphPad Prism 6. The fitted equation was: Y=Bottom+(Top−Bottom)/(1+10^((Log IC50−X)*HillSlope)), where Y represents the rate of inhibition and X represents the concentration of the known compound after Log.
(§12) The results of the in vitro anti-cell proliferation assays of H1299 and MIA Paca-2 for the example compounds according to the method described above are shown in Table 2, wherein the IC50 of each compound was determined and classified according to the description as follows: […]

Wee1 protein = molecular target: T2, Wee1 protein (Homo sapiens, UniProt P30291); test: Binding of compound to Wee1 protein and Tracer 178 by TR-FRET (Wee1 kinase inhibitory activity); settings: 15 nM WEE1, 50 nM Tracer 178, read-out: IC50 (inhibitory activity against Wee1 kinase)
T2 construct: purchased Thermo Fisher PR7373A
Protocol: First, solutions of the compounds in different concentration gradients were prepared. The compounds were dissolved in DMSO and the compounds were diluted 4 folds with a total of 10 dose points and 2 parallel replicates for each concentration.
The IC50 for inhibition of enzyme activity by the compounds was then calculated using GraphPad Prism 6 and fitted with a log (inhibitor) vs. response-Variable slope mode. The fitting equation was: Y=Bottom+(Top−Bottom)/(1+10^((Log IC50−X)*HillSlope)), wherein Y represents the percentage of residual enzyme activity known and X represents the known concentration of compound after the logarithm.

[3] = Membrane permeability study (Caco-2); type: in vitro ADME; settings: human; for efflux ratio at 90 min, 10 µM: Caco-2, pH 7.4; for Papp A→B at 90 min, 10 µM / Papp B→A at 90 min, 10 µM: pH 7.4, Caco-2, 10 μM; for Papp A→B at 90 min, 10 µM: apical to basolateral; for Papp B→A at 90 min, 10 µM: basolateral to apical
Protocol: Caco-2 cells were purchased from the […] (Rockville, MD). The cell culture medium was modified Eagle's medium (MEM) containing 10% inactivated fetal bovine serum and 1% non-essential amino acids.
The cells were incubated for 21-28 days after inoculation for transport experiments and the apparent permeability (Papp) of Lucifer Yellow was used to characterize and verify the compactness of the cell monolayer. […] A 10 μM working solution of the compound to be tested was added to the apical side and basolateral side of Caco-2 and incubated at 37° C. for 90 min. After the incubation, dilute the samples on the apical side and basolateral side, and the concentrations of compounds on the apical and basolateral sides were detected by LC-MS/MS, and the concentrations of the compounds were quantified by standard curve.

MIA PaCa2 cells = test: Anti-proliferative effect on MIA PaCa2 cells by Cell Titer-Glo; type: cell-based; settings: Homo sapiens, MIA PaCa-2, 72 h, 3 days, read-out: MIA PaCa 2 (IC50, inhibition of proliferation in vitro)
Protocol: as §8
2. Evaluation of the Anti-Proliferative Effect of Compounds on MIA PaCa2 Cells by the Cell Titer-Glo Method
as §9
as §10, with “1 h” for “1h”
as §11, with “Y=Bottom+(Top-Bottom)/(1+10^((Log” for “Y=Bottom+(Top−Bottom)/(1+10^((Log”, “wherein” for “where”
as §12

[4] = Plasma protein binding (PPB), equilibrium dialysis; type: in vitro ADME; settings: mouse plasma, 5 h dialysis
Source text: 1. Experimental Procedure
2. Data Processing and Parameter Calculation

[5] = Pharmacokinetics on single dose in mice (intravenous and oral); type: in vivo, ICR mice; settings: male, ICR, mouse, plasma, Oral, 10 mg/kg
Protocol: 1. Experimental Aim: The present experiment aimed to obtain the pharmacokinetic profile of the subject compounds in ICR mice (both intravenous and oral) 3.1.2 Test System Species: SPF grade male ICR mice Body weight/weekly age: about 30 g 4. […] 4.2 Subjects Given (Route) Intravenous: 1 mg/kg in a volume of 5 mL/kg Gavage: 10 mg/kg in a volume of 10 mL/kg Ultrasound for 5 min before administration 4.3 Subject Preparation (Concentration) Intravenous: 0.2 mg/mL Gavage: 1 mg/mL Fast overnight before administration and feed four hours after administration. […] The blood samples were stored in a refrigerator at or below −20° C. for LC-MS/MS analysis. […] LC-MS/MS Analytical Detection Used 5. Data Processing The samples were detected for drug concentration at each time point by LC-MS/MS. Pharmacokinetic parameters terminal elimination half-life (t1/2), area under the curve (AUC), apparent volume of distribution (Vd), clearance (CL), mean residence time (MRT), and Cmax were calculated using the non-compartmental model of Phoenix WinNonlin 5.2. Bioavailability (F %) was directly from serum concentration results. Mean±standard deviation (X±SD) was used for blood concentration and pharmacokinetic parameters, etc. Specific testing and analytical methods were specified in the form of protocol revisions.

[6] = Homo sapiens, NCI-H1299, 72 h, read-out: H1299 (IC50, inhibition of proliferation in vitro)

T2 sequence (P30291 whole entry): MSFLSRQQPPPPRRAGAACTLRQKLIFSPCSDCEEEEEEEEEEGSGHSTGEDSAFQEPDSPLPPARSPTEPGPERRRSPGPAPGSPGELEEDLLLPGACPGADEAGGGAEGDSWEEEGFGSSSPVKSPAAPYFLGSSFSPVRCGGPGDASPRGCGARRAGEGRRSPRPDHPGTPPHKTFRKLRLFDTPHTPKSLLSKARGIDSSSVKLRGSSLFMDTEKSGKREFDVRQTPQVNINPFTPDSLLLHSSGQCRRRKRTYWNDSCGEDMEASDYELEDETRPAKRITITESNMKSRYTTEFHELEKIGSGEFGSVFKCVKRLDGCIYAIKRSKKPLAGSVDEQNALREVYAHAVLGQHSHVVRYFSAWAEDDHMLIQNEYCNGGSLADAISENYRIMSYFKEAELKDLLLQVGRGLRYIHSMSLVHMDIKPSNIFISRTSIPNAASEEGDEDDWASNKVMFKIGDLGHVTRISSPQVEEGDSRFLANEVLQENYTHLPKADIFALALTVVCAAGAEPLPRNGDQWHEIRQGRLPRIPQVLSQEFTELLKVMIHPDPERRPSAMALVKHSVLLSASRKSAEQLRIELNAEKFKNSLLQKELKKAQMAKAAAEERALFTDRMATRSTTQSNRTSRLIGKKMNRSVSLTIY

Row | Compound | inhibition at 30 min, 10 µM (CYP2B6) | half-life at 1 µM [1] | half-life at 1 µM [2] | IC50 (H1299 cells; [6]) | IC50 (Wee1 protein) | efflux ratio at 90 min, 10 µM [3] | Papp A→B at 90 min, 10 µM [3] | Papp B→A at 90 min, 10 µM [3] | IC50 (MIA PaCa2 cells) | fraction unbound at 5 h, 1 µM [4] | AUC(0-t) [5] | Cmax [5] | MRT [5] | half-life [5] | IC50 (H1299 cells; listed as Compound53, read-out: H1299 (IC50, inhibition of proliferation in vitro))
1 | C=CCn1c(=O)c2cnc(Nc3ccc(N4C[C@@H]5C[C@H]4CN5C)cc3)nc2n1-c1cccc(C(C)(C)O)n1 [Compound 3] | 1.38% | – | – | – | – | – | – | – | – | – | – | – | – | – | –
2 | C=CCn1c(=O)c2cnc(Nc3ccc(OC4CN5CCC4CC5)cc3)nc2n1-c1cccc(C(C)(C)O)n1 (stereo not shown) [Compound 4] | – | 10.1 min | 22.2 min | 1000 to 2000 nM | < 5 nM | – | – | – | – | – | – | – | – | – | –
3 | C=CCn1c(=O)c2cnc(Nc3ccc(CC4C(=O)C5CCN4CC5)cc3)nc2n1-c1cccc(N=S(C)(C)=O)n1 (stereo not shown) [Compound 6] | – | 5.72 min | 5.16 min | 100 to 1000 nM | < 5 nM | – | – | – | – | – | – | – | – | – | –
4 | C=CCn1c(=O)c2cnc(Nc3ccc(OCC)c(CC4C(=O)C5CCN4CC5)c3)nc2n1-c1cccc(N=S(C)(C)=O)n1 (stereo not shown) [Compound 9] | – | 0.78 min | 2.82 min | 1000 to 2000 nM | < 5 nM | – | – | – | – | – | – | – | – | – | –
5 | C=CCn1c(=O)c2cnc(Nc3cccc(CC4C(=O)C5CCN4CC5)c3)nc2n1-c1cccc(N=S(C)(C)=O)n1 (stereo not shown) [Compound 10] | – | 1.34 min | 8.31 min | 100 to 1000 nM | < 5 nM | – | – | – | – | – | – | – | – | – | –
6 | C=CCn1c(=O)c2cnc(Nc3ccc(N4C[C@@H]5C[C@H]4CN5C)c(C)c3)nc2n1-c1cccc(C(C)(C)O)n1 [Compound 12] | – | 31.5 min | – | 100 to 1000 nM | 5 to 10 nM | 11.8 | 2.84 ×10⁻⁶ cm/s | 33.5 ×10⁻⁶ cm/s | 100 to 1000 nM | – | – | – | – | – | –
7 | C=CCn1c(=O)c2cnc(Nc3ccc(N4CCOC5(CCCN(C)C5)C4)cc3)nc2n1-c1cccc(C(C)(C)O)n1 (stereo not shown) [Compound 46] | – | 13.6 min | 16.8 min | 100 to 1000 nM | 10 to 100 nM | – | – | – | 100 to 1000 nM | 0.179 | – | – | – | – | –
8 | C=CCn1c(=O)c2cnc(Nc3ccc(N4CC5CC(C4)N5CCF)cc3)nc2n1-c1cccc(C(C)(C)O)n1 [Compound 48] | – | – | – | 100 to 1000 nM | < 5 nM | 2.65 | 13.3 ×10⁻⁶ cm/s | 35.3 ×10⁻⁶ cm/s | 100 to 1000 nM | 0.031 | 482 ng·h/mL | 470 ng/mL | 0.9 h | 38.4 min | –
9 | C=CCn1c(=O)c2cnc(Nc3ccc(N4CC5CC(C4)N5C4CCC4)cc3)nc2n1-c1cccc(C(C)(C)O)n1 [Compound 49] | – | – | – | 100 to 1000 nM | < 5 nM | – | – | – | 100 to 1000 nM | 0.042 | 534 ng·h/mL | 388 ng/mL | 1.14 h | 61.8 min | –
10 | C=CCn1c(=O)c2cnc(Nc3ccc(N4CC5CC(C4)N5C)cc3)nc2n1-c1ccc2ccn(CC)c2n1 [Compound 51] | – | 14.7 min | 19 min | 100 to 1000 nM | < 5 nM | – | – | – | 100 to 1000 nM | 0.03 | 430 ng·h/mL | 290 ng/mL | 1.18 h | 57 min | –
11 | C=CCn1c(=O)c2cnc(Nc3ccc(N4CC5CC(C4)N5C)cc3)nc2n1-c1ccc2cnn(CC)c2n1 [Compound 53] | – | – | – | – | 5 to 10 nM | – | – | – | 2000 to 5000 nM | 0.035 | 1640 ng·h/mL | 800 ng/mL | 1.92 h | 113 min | 100 to 1000 nM

Source: patent publication US20250034151A1, “WEE1 INHIBITOR, PREPARATION THEREFOR, AND USE THEREOF” (JIANGSU TASLY DIYI PHARMACEUTICAL CO., LTD., priority 2022, published 2025)
